Reference: US4204038A, “Process for preparing antibiotics MA 144-M1 and MA 144-M2” (Zaidan Hojin Biseibutsu Kagaku Kenkyu Kai, priority 1976, dated 1980)
In brackets after ≈: the same amount, converted by molar mass.

Key:
in vivo [1] = details: Mouse
Proteus morganii = experiment: Minimum inhibitory concentration by the broth dilution method; assay type: cell-based; details: Morganella morganii, read-out: Minimum inhibitory concentration (MIC)
Excerpt: (§1) (1) MA 144-M1 and MA 144-M2 have antimicrobial activity against various kinds of microorganisms.

Bac. cereus ATCC 9634 = experiment: as above; assay type: cell-based; details: Bacillus cereus, ATCC9634, read-out: Minimum inhibitory concentration (MIC)
Excerpt: as §1

[2] = test system: Ps. fluorescens NIH JB-254; experiment: as above; assay type: cell-based; details: Pseudomonas fluorescens, NIHJB254, read-out: Minimum inhibitory concentration (MIC)
Excerpt: as §1

Sarcina lutea ATCC 341 = experiment: as above; assay type: cell-based; details: Micrococcus luteus, ATCC341, read-out: Minimum inhibitory concentration (MIC)
Excerpt: as §1

Staph. aureus FDA 209P = experiment: as above; assay type: cell-based; details: Staphylococcus aureus, FDA209P, read-out: Minimum inhibitory concentration (MIC)
Excerpt: as §1

Bac. subtilis ATCC 6633 = experiment: as above; assay type: cell-based; details: Bacillus subtilis, ATCC6633, read-out: Minimum inhibitory concentration (MIC)
Excerpt: as §1

[3] = test system: Bac. megaterium NRRL B-938; experiment: as above; assay type: cell-based; details: Priestia megaterium, NRRLB938, read-out: Minimum inhibitory concentration (MIC)
Excerpt: as §1

Can. tropicalis IAM 4942 = experiment: as above; assay type: cell-based; details: Candida tropicalis, IAM4942, read-out: Minimum inhibitory concentration (MIC)
Excerpt: as §1

Staph. aureus Smith = experiment: as above; assay type: cell-based; details: Staphylococcus aureus, read-out: Minimum inhibitory concentration (MIC)
Excerpt: as §1

Mic. flavus = experiment: as above; assay type: cell-based; details: Micrococcus flavus, read-out: Minimum inhibitory concentration (MIC)
Excerpt: as §1

Can. albicans IAM 4905 = experiment: as above; assay type: cell-based; details: Candida albicans, IAM4905, read-out: Minimum inhibitory concentration (MIC)
Excerpt: as §1

Cory. bovis = experiment: as above; assay type: cell-based; details: Corynebacterium bovis, read-out: Minimum inhibitory concentration (MIC)
Excerpt: as §1

[4] = test system: Mycobact. smegmatis ATCC 607; experiment: as above; assay type: cell-based; details: read-out: Minimum inhibitory concentration (MIC)
Excerpt: as §1

Strept. pyogenes NY 5 = experiment: as above; assay type: cell-based; details: Streptococcus pyogenes, NY5, read-out: Minimum inhibitory concentration (MIC)
Excerpt: as §1

L1210 cells [5] = experiment: RNA synthesis in cultured L1210 cells; assay type: cell-based, mice
Protocol: (§2) In this experiment, L1210 cells were inoculated in RPMI 1640 medium (Nissui, Roswell Park Memorial Institute 1640) containing 10% calf serum and cultivated at 37° C. for 3 days in a CO2 incubator, and MA 144-M1, MA 144-M2 and ^14 C-precursor were added at various concentrations. Effects on the synthesis of protein, RNA and DNA were indicated by the 50% inhibition concentration (μg./ml.) as shown in the following table.

Sarcoma 180 = experiment: Therapeutic effectiveness on Sarcoma 180 solid tumor; assay type: in vivo, dd mice; details: intraperitoneally, day 1 to day 10; for Weight of tumor: control 1.68
Protocol: (c) Therapeutic effectiveness on Sarcoma 180 solid tumor
dd mice were inoculated with 2×10^6 cells of Sarcoma 180, and drug was administered intraperitoneally from day 1 to day 10.

P388 = experiment: Therapeutic effectiveness on P388-bearing mice; assay type: in vivo; details: intraperitoneally, day 1 to day 9, CDF1-P388
Protocol: (b) Therapeutic effectiveness on P388-bearing mice
Drug was administered intraperitonally

gram-positive bacteria = experiment: Antimicrobial activity against gram-positive bacteria; assay type: cell-based; details: in words
Excerpt: as §1

in vivo [6] = details: Rat
L1210 = experiment: Therapeutic effectiveness on L1210-bearing mice; assay type: in vivo; details: intraperitoneally, day 0 to day 10, CDF1-L1210
Protocol: (a) Therapeutic effectiveness on L1210-bearing mice
Drug was administered intraperitoneally

L1210 cells [7] = experiment: Cytotoxicity: growth of cultured L1210 cells; assay type: cell-based, mice
L1210 cells [8] = experiment: Protein synthesis in cultured L1210 cells; assay type: cell-based, mice; details: Mus musculus, L1210, read-out: % inhibition, Protein synthesis
Protocol: as §2

[9] = Basicity and lipophilicity
Antitumor activity = assay type: in vivo; details: in words
Toxicity = details: in words
L1210 cells [10] = experiment: DNA synthesis in cultured L1210 cells; assay type: cell-based, mice; details: Mus musculus, L1210, read-out: ID50, DNA synthesis
Protocol: as §2

SMILES: CCC1(O)CC(OC2CC(N(C)C)C(OC3CC(O)C(OC4CCC(O)C(C)O4)C(C)O3)C(C)O2)c2c(cc3c(c2O)C(=O)c2c(O)cccc2C3=O)C1C(=O)OC (centres unmarked) [MA 144-M1]
- LD50 (in vivo [1]; ip): 35 mg/kg
- LD50 (in vivo [1]; iv): 30 to 35 mg/kg
- MIC (Proteus morganii): > 100 µg/mL
- MIC (Bac. cereus ATCC 9634): 0.78 µg/mL (≈ 0.958 µM)
- MIC [2]: > 100 µg/mL
- MIC (Sarcina lutea ATCC 341): 0.05 µg/mL (≈ 0.0614 µM)
- MIC (Staph. aureus FDA 209P): 3.1 µg/mL (≈ 3.81 µM)
- MIC (Bac. subtilis ATCC 6633): 0.4 µg/mL (≈ 0.491 µM)
- MIC [3]: 3.1 µg/mL (≈ 3.81 µM)
- MIC (Can. tropicalis IAM 4942): > 100 µg/mL
- MIC (Staph. aureus Smith): 0.2 µg/mL (≈ 0.246 µM)
- MIC (Mic. flavus): 0.2 µg/mL (≈ 0.246 µM)
- MIC (Can. albicans IAM 4905): 100 µg/mL (≈ 123 µM)
- MIC (Cory. bovis): 0.4 µg/mL (≈ 0.491 µM)
- MIC [4]: 2.5 µg/mL (≈ 3.07 µM)
- MIC (Strept. pyogenes NY 5): 1.25 µg/mL (≈ 1.54 µM)
- solubility: slightly soluble in (Solubility): slightly soluble in water, diethyl ether and n-hexane
- solubility: soluble in (Solubility): soluble in acidic water, dimethyl sulfoxide, methylcellosolve, methanol, ethanol, ethyl acetate, acetone, chloroform, benzene, toluene
- inhibition of RNA synthesis (L1210 cells [5]; L1210 cells, in words): completely inhibited RNA synthesis
- IC50 (L1210 cells [5]; Mus musculus, L1210, read-out: ID50, RNA synthesis): 0.7 µg/mL (≈ 0.86 µM)
- % Inhibition of tumor growth (Sarcoma 180; 0.3 mg/kg/day): 25.5%
- Weight of tumor (Sarcoma 180; 0.3 mg/kg/day): 1.25 g
- % Inhibition of tumor growth (Sarcoma 180; 0.6 mg/kg/day): 53.7%
- Weight of tumor (Sarcoma 180; 0.6 mg/kg/day): 0.78 g
- % Inhibition of tumor growth (Sarcoma 180; 1.25 mg/kg/day): 51.9%
- Weight of tumor (Sarcoma 180; 1.25 mg/kg/day): 0.81 g
- % Inhibition of tumor growth (Sarcoma 180; 2.5 mg/kg/day): 61.3%
- Weight of tumor (Sarcoma 180; 2.5 mg/kg/day): 0.65 g
- % Inhibition of tumor growth (Sarcoma 180; 5 mg/kg/day): 77.4%
- Weight of tumor (Sarcoma 180; 5 mg/kg/day): 0.38 g
- Prolongation of the survival time (P388; 0.313 mg/kg/day): 110%
- Prolongation of the survival time (P388; 0.625 mg/kg/day): 135%
- Prolongation of the survival time (P388; 1.25 mg/kg/day): 149%
- Prolongation of the survival time (P388; 2.5 mg/kg/day): 184%
- Prolongation of the survival time (P388; 5 mg/kg/day): 100%
- antimicrobial activity against gram-positive bacteria (gram-positive bacteria): show antimicrobial activity against gram-positive bacteria
- LD50 (in vivo [6]; ip): 25 to 30 mg/kg
- LD50 (in vivo [6]; iv): 25 to 30 mg/kg
- Prolongation of the survival time (L1210; 0.156 mg/kg/day): 110%
- Prolongation of the survival time (L1210; 0.313 mg/kg/day): 110%
- Prolongation of the survival time (L1210; 0.625 mg/kg/day): 123%
- Prolongation of the survival time (L1210; 1.25 mg/kg/day): 137%
- Prolongation of the survival time (L1210; 2.5 mg/kg/day): 192%
- Prolongation of the survival time (L1210; 5 mg/kg/day): 200%
- Prolongation of the survival time (L1210; 10 mg/kg/day): 90%
- IC50 (L1210 cells [7]; Mus musculus, L1210, 72 h, read-out: ID50, Growth): 0.12 µg/mL (≈ 0.147 µM)
- inhibition of the growth of cultured L1210 cells (L1210 cells [7]; at the low concentration, in words): inhibited markedly
- inhibition at 10 µg/mL (L1210 cells [8]): 10%
- basicity [9]: Weakly basic
- lipophilicity [9]: lipophilic
- antitumor activity (Antitumor activity): marked antitumor activity
- toxicity (Toxicity): low toxicity
- IC50 (L1210 cells [10]): 1.7 µg/mL (≈ 2.09 µM)
